Where a SMILES comes first, the peptide text is derived from it. The star is where a group is joined. X1 = CCCCCCCCCCCCCCNC(=O)OC[C@H](C*)OC(=O)NCCCCCCCCCCCCCC; Palmitoyl = CCCCCCCCCCCCCCCC(=O)*
Columns and labels:
Tlr2^−/− RAW 264.7 cells = assay: TNFα production by Tlr2−/− RAW 264.7 cells (TLR2 specificity); format: cell-based; conditions: 500 nM, 8 h
Experimental: Tlr2^−/− RAW 264.7 cells were generated by lentiviral CRISPR-Cas9 system as described previously ([36]). Briefly, target guide sequences (5′-[…]-3′, 3′-[…]-5′) designed by Genome Engineering 3.0 were ligated into lentiviral vector lentiCRISPR (Addgene 52961). Then lentiCRISPR as well as packaging plasmids pMD2.G (Addgene 12259) and psPax2 (Addgene 12260) were co-transfected into 293FT cells by CaCl2 (12.5 mM) for virus packaging. Fresh cell culture medium was changed 12 h post-transfection. After another 72 h, 293FT cell culture supernatant containing virus was harvested, filtered, and concentrated. Then, RAW 264.7 cells were infected by the virus (~5 × 10^5 TU/mL) with the presence of 8 µg/mL polybrene (Sigma H9268). […]
Splenic DCs (5 × 10^5 cells/mL) were stimulated by Pam3 (200 nM), SUP3 (200 nM), or CpG ODN 1668 (20 nM; Adipogen IAX-200-001) in the GM-CSF (20 ng/mL) supplemented medium for indicated periods. […] Cytokines (IL-6, eBioscience 88-7064; TNFα, eBioscience 88-7324; IL-12p40, BioLegend 431604), chemokine (MIP1α, R&D Systems DY450-05), and total IgM (eBioscience, 88-50470) were quantified by ELISA kits following the instructions of manufacturers.
Figure 1 Specificity and activity of novel TLR2 agonist SUP3. […] The production of cytokines IL-6 and TNFα in culture supernatant was determined by ELISA. *p < 0.05, ****p < 0.0001, “n.s.” indicates statistically non-significant.

CD8^+ cDCs = assay: Costimulatory and MHC molecule expression on CD8+ cDCs in vitro; format: cell-based, mice; conditions: 200 nM, GM-CSF 20 ng/mL, 24 h, flow cytometry
Experimental: Single cell suspensions were prepared, and cells were stained by fluorescence-conjugated antibodies and viability dye 7-AAD (eBioscience 00-6993) at 4°C for 30 min in the dark. Cells were washed, resuspended, and analyzed on LSR Fortessa (Becton Dickinson).
Figure 4 SUP3 stimulated maturation of CD8^+ conventional dendritic cells (cDCs). (A) Purified CD8^+ cDCs were treated with SUP3 (200 nM) or Pam3 (200 nM) in the presence of granulocyte-macrophage colony-stimulating factor (GM-CSF) (20 ng/mL) for 24 h. The surface expression of costimulatory and major histocompatibility complex (MHC) molecules were then analyzed by flow cytometry. Representative data from three independent experiments were shown. “Isotype” represented relative isotype antibody staining of Pam3 or SUP3 stimulated cells. (B) SUP3 (2 nmol per mouse), Pam3 (2 nmol per mouse), or PBS were i.v. injected into mice for 1 h. Splenic CD8^+ cDCs were enriched, and surface expression of CD40 and CD86 was analyzed by flow cytometry. Representative data from two independent experiments with three mice for each group were shown. […] Supernatants were harvested 24 and 48 h post-stimulation, and cytokines were measured by ELISA. […]

Compound | TNFα secretion by Tlr2−/− RAW cells (Tlr2^−/− RAW 264.7 cells) | expression of CD40, CD80, CD86, and MHC-II on CD8+ cDCs (CD8^+ cDCs)
Pam3CSK4 [reference compound] | no secretion of TNFα | substantial upregulation
CCCCCCCCCCCCCCCC(=O)N[C@@H](CSC[C@@H](COC(=O)NCCCCCCCCCCCCCC)OC(=O)NCCCCCCCCCCCCCC)C(=O)NCC(=O)N[C@@H](CCCCN)C(=O)N[C@@H](CCCCN)C(=O)N[C@@H](CCCCN)C(=O)O [SUP3, (2S,5S,8S,14R,18R)-2,5,8-tris(4-aminobutyl)-4,7,10,13,21-pentaoxo-14-palmitamido-18-((tetradecylcarbamoyl)oxy)-20-oxa-16-thia-3,6,9,12,22-pentaazahexatriacontan-1-oic acid] (Palmitoyl-C(X1)GKKK-OH) | no secretion of TNFα | substantial upregulation

Source: publication PMC5318439, “The Novel Toll-Like Receptor 2 Agonist SUP3 Enhances Antigen Presentation and T Cell Activation by Dendritic Cells” (Frontiers in Immunology, 2017)
